The text below walks through data of US6562867B2, “Carbamate compounds for use in preventing or treating bipolar disorder” (Ortho-McNeil Pharmaceutical, Inc., priority 2001, dated 2003).

One assay relates to hippocampal kindled rats. The experiment in a line: Hippocampal kindled rat model. As to conditions: for # Protected/# Tested / Afterdischarge Duration (sec) ± S.E.M. / Seizure Score ± S.E.M.: time of test 15 min; for Seizure Score ± S.E.M.: stages 1-5. Format: in vivo, Sprague-Dawley rats. The method, then:
In the hippocampal kindling model (Lothman E W, et al., Epilepsy Res., 1988, 2(6) 367-79), adult male Sprague-Dawley rats are surgically implanted with bipolar electrodes. Seizure score was assessed using the following stages: (1) mouth and facial movements; (2) above symptoms plus head nodding; (3) above symptoms plus forelimb clonus;(4) above symptoms plus rearing; and (5) above symptoms plus falling.

Assay [1] relates to electrically kindled rats (Stage 5 seizures). The experiment in a line: Electrically kindled rat model (corneal electrodes). As to conditions: one hour after administration; for % Protection: 100% minus % Seizure Activity. Format: in vivo, Wistar rats. An excerpt:
A similar effect for the enantiomer of Formula (Ib) was also found in the electrically kindled rat model (Racine R., J. Clin. Neurophysiol., 1972, 32, 281-294), an alternative model of kindling. Electrical stimulation through corneal electrodes induces a progression of behavioral seizures similar to those observed in hippocampal kindling.
Adult male Wistar rats were electrically kindled for 4 seconds (8 mA; 60 Hz) via corneal electrodes for a minimum of Stage 5 seizures.
One hour after oral administration, % Seizure Activity was assessed as a combined score of seizure activity for each animal for the total number of animals per group; % Protection is derived by subtracting % Seizure Activity om 100%.

One may read the ED50 as the dose that gives a 50% effect, or the effect in half of the subjects. `NC(=O)OC[C@@H](O)c1ccccc1Cl` [Formula (Ib)]: the “# Protected/# Tested” value is on record as 2/7 with hippocampal kindled rats (12.5 mg/kg intraperitoneally), 4/7 in the assay on hippocampal kindled rats (25 mg/kg intraperitoneally) and 5/7 in the assay with hippocampal kindled rats (37.5 mg/kg intraperitoneally). Further, the “Afterdischarge Duration (sec) ± S.E.M.” value is 52.00 ± 10.88 s in the assay on hippocampal kindled rats (12.5 mg/kg intraperitoneally), 38.29 ± 13.48 s in the assay on hippocampal kindled rats (25 mg/kg intraperitoneally) and 38.00 ± 11.87 s with hippocampal kindled rats (37.5 mg/kg intraperitoneally). For the same compound, the “Seizure Score ± S.E.M.” value stood at 3.43 ± 0.53 in the assay on hippocampal kindled rats (12.5 mg/kg intraperitoneally), 2.29 ± 0.78 in the assay with hippocampal kindled rats (25 mg/kg intraperitoneally) and 2.29 ± 0.75 with hippocampal kindled rats (37.5 mg/kg intraperitoneally). In addition, the ED50 with hippocampal kindled rats (Rattus norvegicus, ip, intraperitoneally, 95% confidence interval of 12.5 to 37.5 mg/kg, read-out: calculated ED50 for reduction of the seizure score from 5 to 3 or less) is roughly 22.5 mg/kg; in assay [1] (Rattus norvegicus, 1 h, oral, expression of Stage 5 seizures), 4.2 mg/kg. Besides, the “% Seizure Activity” value is given as 93.3% in assay [1] (1 mg/kg oral), 46.7% in assay [1] (3 mg/kg oral), 33.3% in assay [1] (10 mg/kg oral) and 0% in assay [1] (100 mg/kg oral). Further, the “% Protection” value stood at 6.7% in assay [1] (1 mg/kg oral), 53.3% in assay [1] (3 mg/kg oral), 66.7% in assay [1] (10 mg/kg oral) and 100% in assay [1] (100 mg/kg oral).
